According to patent publication US20130280755A1, “THERAPEUTIC METHODS FOR SOLID DELIVERY” (Fred Hutchinson Cancer Research Center, priority 2010, published 2013):

Columns and labels:
mouse tumor = assay: Mouse tumor injected with doxorubicin and control; fluorescent imaging of the apoptosis signal; assay type: in vivo; conditions: FIG. 14; excitation 640 nm, emission 720 nm of the dye; versus control injection
Procedure: FIG. 14 depicts the use of various indicator dyes according to the method, to monitor spatially restricted delivery of compounds and resulting localized effects on regions of a tumor. A mouse tumor was injected with 1. doxorubicin; and 2. a control. Panel A illustrates excitation at 640 nm and emission at 800 nm of the dye. Panel B illustrates the doxorubicin signal (3.) observed after excitation at 500 nm and emission at 600 nm of doxorubicin. Panel C illustrates an apoptosis signal (4.) observed after excitation at 640 nm and emission at 720 nm of the dye.

lymphoma tumor = assay: Doxorubicin delivered to a lymphoma tumor with a needle array; excised tumor slices imaged by fluorescence and brightfield microscopy; assay type: in vivo
Excerpt: Doxorubicin was delivered to a lymphoma tumor using a needle array of the method. The tumor was then excised and sectioned. […] Regions of doxorubicin fluorescence and cell death are localized to a zone within the tumor slice, reflecting spatially constrained doxorubicin delivery.

[1] = tested on: Intracranial medulloblastoma model (conditional Patchedl null) mice; assay: Survival of intracranial medulloblastoma model mice; assay type: in vivo, mouse; conditions: FIG. 13; 20 mg/kg daily; monitored for 50 days; versus vehicle only
Procedure: The results of the in vivo experiment depicted in FIG. 12 predicted that Shh antagonists would have a positive effect on a mouse model of cancer. Intracranial medulloblastoma model (conditional Patchedl null) mice used in this experiment develop medulloblastoma with an early onset and 100% penetrance. Accordingly, mice were injected daily with 20 mg/kg of either A) vehicle plus IPI-926 (n=12); or B) vehicle only (n=11). The mice were monitored for 50 days for survival, and the results depicted in FIG. 13.

SMILES | apoptosis signal (mouse tumor) | cell death in tumor slice, relative to doxorubicin fluorescence (lymphoma tumor; FIG. 8, one tumor slice, needle array delivery) | cell death across tumor depths (lymphoma tumor; FIG. 9, three cross-sectional slices from different depths) | survival [1]
COc1cccc2c1C(=O)c1c(O)c3c(c(O)c1C2=O)C[C@@](O)(C(=O)CO)C[C@@H]3O[C@H]1C[C@H](N)[C@H](O)[C@H](C)O1 [Doxorubicin] | apoptosis overlaps with the region that received doxorubicin | doxorubicin fluorescence overlaps with the region of dead cells | Cell death was observed in a localized area across the three tumor depths | –
CC1=C2C[C@H]3[C@@H](CC[C@@H]4C[C@H](NS(C)(=O)=O)CC[C@@]43C)[C@@H]2CC[C@@]2(C1)O[C@@H]1C[C@H](C)CN[C@H]1[C@H]2C [IPI-926] | – | – | – | significantly increased survival
